From paper PMC10373466 (ACS Omega, 2023)

Test system: not listed separately
Assay: In vitro hepatotoxicity MTT assay
Conditions: human

Row | Compound | IC50 at 24 h
1 | COc1cccc2c1C(=O)c1c(O)c3c(c(O)c1C2=O)C[C@@](O)(C(=O)CO)C[C@@H]3O[C@H]1C[C@H](N)[C@H](O)[C@H](C)O1 [Doxorubicin, reference compound] | 4.5 ± 0.2 µM
2 | Nc1c2c(nc3ccccc13)CCCC2 [Tacrine, reference compound] | 17.5 ± 1.1 µM

Biological target: hAChE (Homo sapiens, UniProt P22303)
Assay: In vitro AChE inhibition assay
Format: biochemical
Conditions: in vitro AChE inhibition IC50 ± SD, Ellman method, n = 3

Chain of hAChE (P22303 32-614): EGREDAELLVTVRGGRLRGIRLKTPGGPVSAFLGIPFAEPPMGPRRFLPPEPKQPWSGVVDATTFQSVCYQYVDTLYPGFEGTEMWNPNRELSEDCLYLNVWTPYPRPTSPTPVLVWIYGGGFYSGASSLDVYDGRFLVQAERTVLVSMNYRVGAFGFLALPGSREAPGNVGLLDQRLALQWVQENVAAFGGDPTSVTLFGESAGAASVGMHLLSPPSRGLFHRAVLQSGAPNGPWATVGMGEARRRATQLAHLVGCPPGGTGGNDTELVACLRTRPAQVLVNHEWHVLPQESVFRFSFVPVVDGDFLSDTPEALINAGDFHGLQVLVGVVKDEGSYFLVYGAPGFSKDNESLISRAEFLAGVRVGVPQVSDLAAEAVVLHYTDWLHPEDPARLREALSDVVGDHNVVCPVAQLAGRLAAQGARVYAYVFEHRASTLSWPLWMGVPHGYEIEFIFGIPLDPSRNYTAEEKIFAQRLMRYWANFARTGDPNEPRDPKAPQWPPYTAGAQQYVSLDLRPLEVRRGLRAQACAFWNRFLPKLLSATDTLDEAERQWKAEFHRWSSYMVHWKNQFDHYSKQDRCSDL

Row | Compound | IC50
3 | Nc1c2c(nc3c1C(c1cccc(Br)c1)c1ccc(O)cc1O3)CCCC2 (centres unmarked) [3a, 11-Amino-12-(3-bromophenyl)-7,9,10,12-tetrahydro-8H-chromeno[2,3-b]quinolin-3-ol] | 3.48 ± 0.19 µM
4 | COc1cccc(C2c3ccc(O)cc3Oc3nc4c(c(N)c32)CCCC4)c1 (centres unmarked) [3b, 11-Amino-12-(3-methoxyphenyl)-7,9,10,12-tetrahydro-8H-chromeno[2,3-b]quinolin-3-ol] | 26.7 ± 1.42 µM
5 | Nc1c2c(nc3c1C(c1cccc([N+](=O)[O-])c1)c1ccc(O)cc1O3)CCCC2 (centres unmarked) [3c, 11-Amino-12-(3-nitrophenyl)-7,9,10,12-tetrahydro-8H-chromeno[2,3-b]quinolin-3-ol] | 15.1 ± 0.8 µM
6 | Nc1c2c(nc3c1C(c1ccc(Cl)c(Cl)c1)c1ccc(O)cc1O3)CCCC2 (centres unmarked) [3d, 11-Amino-12-(3,4-dichlorophenyl)-7,9,10,12-tetrahydro-8H-chromeno[2,3-b]quinolin-3-ol] | 5.31 ± 0.28 µM
7 | COc1ccccc1C1c2ccc(O)cc2Oc2nc3c(c(N)c21)CCCC3 (centres unmarked) [3e, 11-Amino-12-(2-methoxyphenyl)-7,9, 10, 12-tetrahydro-8H-chromeno[2,3-b]quinolin-3-ol] | 5.88 ± 0.31 µM
8 | Nc1c2c(nc3c1C(c1cccc(Br)c1)c1ccc(OS(=O)(=O)c4ccc(F)cc4)cc1O3)CCCC2 (centres unmarked) [4a, 11-Amino-12-(3-bromophenyl)-7,9,10,12-tetrahydro-8H-chromeno[2,3-b]quinolin-3-yl-4-fluorobenzenesulfonate] | 3.88 ± 0.21 µM
9 | COc1cccc(C2c3ccc(OS(=O)(=O)c4ccc(F)cc4)cc3Oc3nc4c(c(N)c32)CCCC4)c1 (centres unmarked) [4b, 11-Amino-12-(3-methoxyphenyl)-7,9,10,12-tetrahydro-8H-chromeno[2,3-b]quinolin-3-yl-4-fluorobenzenesulfonate] | 13.5 ± 0.72 µM
10 | Nc1c2c(nc3c1C(c1ccc(Cl)c(Cl)c1)c1ccc(OS(=O)(=O)c4ccc(F)cc4)cc1O3)CCCC2 (centres unmarked) [4d, 11-Amino-12-(3,4-dichlorophenyl)-7,9,10,12-tetrahydro-8H-chromeno[2,3-b]quinolin-3-yl-4-fluorobenzenesulfonate] | 6.09 ± 0.32 µM
11 | COc1ccccc1C1c2ccc(OS(=O)(=O)c3ccc(F)cc3)cc2Oc2nc3c(c(N)c21)CCCC3 (centres unmarked) [4e, 11-Amino-12-(2-methoxyphenyl)-7,9,10,12-tetrahydro-8H-chromeno[2,3-b]quinolin-3-yl-4-fluorobenzenesulfonate] | 22.4 ± 1.19 µM
12 | COc1ccc(S(=O)(=O)Oc2ccc3c(c2)Oc2nc4c(c(N)c2C3c2cccc(Br)c2)CCCC4)cc1 (centres unmarked) [4f, 11-Amino-12-(3-bromophenyl)-7,9,10,12-tetrahydro-8H-chromeno[2,3-b]quinolin-3-yl-4-methoxybenzenesulfonate] | 0.73 ± 0.03 µM
13 | COc1ccc(S(=O)(=O)Oc2ccc3c(c2)Oc2nc4c(c(N)c2C3c2cccc([N+](=O)[O-])c2)CCCC4)cc1 (centres unmarked) [4h, 11-Amino-12-(3-nitrophenyl)-7,9,10,12-tetrahydro-8H-chromeno[2,3-b]quinolin-3-yl-4-methoxybenzenesulfonate] | 1.53 ± 0.07 µM
14 | COc1ccc(S(=O)(=O)Oc2ccc3c(c2)Oc2nc4c(c(N)c2C3c2ccc(Cl)c(Cl)c2)CCCC4)cc1 (centres unmarked) [4i, 11-Amino-12-(3,4-dichlorophenyl)-7,9,10,12-tetrahydro-8H-chromeno[2,3-b]quinolin-3-yl-4-methoxybenzenesulfonate] | 2.2 ± 0.1 µM
15 | COc1ccc(S(=O)(=O)Oc2ccc3c(c2)Oc2nc4c(c(N)c2C3c2ccccc2OC)CCCC4)cc1 (centres unmarked) [4j, 11-Amino-12-(2-methoxyphenyl)-7,9,10,12-tetrahydro-8H-chromeno[2,3-b]quinolin-3-yl-4-methoxybenzenesulfonate] | 5.16 ± 0.22 µM
16 | Cc1ccc(S(=O)(=O)Oc2ccc3c(c2)Oc2nc4c(c(N)c2C3c2cccc(Br)c2)CCCC4)cc1 (centres unmarked) [4k, 11-Amino-12-(3-bromophenyl)-7,9,10,12-tetrahydro-8H-chromeno[2,3-b]quinolin-3-yl-4-methylbenzenesulfonate] | 9.35 ± 0.4 µM
17 | COc1cccc(C2c3ccc(OS(=O)(=O)c4ccc(C)cc4)cc3Oc3nc4c(c(N)c32)CCCC4)c1 (centres unmarked) [4l, 11-Amino-12-(3-methoxyphenyl)-7,9,10,12-tetrahydro-8H-chromeno[2,3-b]quinolin-3-yl-4-methylbenzenesulfonate] | 2.62 ± 0.11 µM
18 | Cc1ccc(S(=O)(=O)Oc2ccc3c(c2)Oc2nc4c(c(N)c2C3c2cccc([N+](=O)[O-])c2)CCCC4)cc1 (centres unmarked) [4m, 11-Amino-12-(3-nitrophenyl)-7,9,10,12-tetrahydro-8H-chromeno[2,3-b]quinolin-3-yl-4-methylbenzenesulfonate] | 11.1 ± 0.48 µM
19 | COc1ccccc1C1c2ccc(OS(=O)(=O)c3ccc(C)cc3)cc2Oc2nc3c(c(N)c21)CCCC3 (centres unmarked) [4o, 11-Amino-12-(2-methoxyphenyl)-7,9,10,12-tetrahydro-8H-chromeno[2,3-b]quinolin-3-yl-4-methylbenzenesulfonate] | 1.03 ± 0.04 µM
20 | Nc1c2c(nc3c1C(c1cccc(Br)c1)c1ccc(OS(=O)(=O)c4ccccc4)cc1O3)CCCC2 (centres unmarked) [4p, 11-Amino-12-(3-bromophenyl)-7,9,10,12-tetrahydro-8H-chromeno[2,3-b]quinolin-3-yl-benzenesulfonate] | 1.34 ± 0.07 µM
21 | COc1cccc(C2c3ccc(OS(=O)(=O)c4ccccc4)cc3Oc3nc4c(c(N)c32)CCCC4)c1 (centres unmarked) [4q, 11-Amino-12-(3-methoxyphenyl)-7,9,10,12-tetrahydro-8H-chromeno[2,3-b]quinolin-3-yl-benzenesulfonate] | 2.45 ± 0.12 µM
22 | Nc1c2c(nc3c1C(c1cccc([N+](=O)[O-])c1)c1ccc(OS(=O)(=O)c4ccccc4)cc1O3)CCCC2 (centres unmarked) [4r, 11-Amino-12-(3-nitrophenyl)-7,9,10,12-tetrahydro-8H-chromeno[2,3-b]quinolin-3-yl-benzenesulfonate] | 5.5 ± 0.28 µM
23 | Nc1c2c(nc3c1C(c1ccc(Cl)c(Cl)c1)c1ccc(OS(=O)(=O)c4ccccc4)cc1O3)CCCC2 (centres unmarked) [4s, 11-Amino-12-(3,4-dichlorophenyl)-7,9,10,12-tetrahydro-8H-chromeno[2,3-b]quinolin-3-yl-benzenesulfonate] | 9.69 ± 0.49 µM
24 | COc1ccccc1C1c2ccc(OS(=O)(=O)c3ccccc3)cc2Oc2nc3c(c(N)c21)CCCC3 (centres unmarked) [4t, 11-Amino-12-(2-methoxyphenyl)-7,9,10,12-tetrahydro-8H-chromeno[2,3-b]quinolin-3-yl-benzenesulfonate] | 24 ± 1.21 µM
25 | Nc1c2c(nc3c1C(c1cccc(Br)c1)c1ccc(OCC(=O)c4ccc(Cl)cc4)cc1O3)CCCC2 (centres unmarked) [5a, 2-[11-Amino-12-(3-bromophenyl)-7,9,10,12-tetrahydro-8H-chromeno[2,3-b]quinolin-3-yl]oxy-1-(4-chlorophenyl)ethan-1-one] | 0.99 ± 0.05 µM
26 | COc1cccc(C2c3ccc(OCC(=O)c4ccc(Cl)cc4)cc3Oc3nc4c(c(N)c32)CCCC4)c1 (centres unmarked) [5b, 2-[11-Amino-12-(3-methoxyphenyl)-7,9,10,12-tetrahydro-8H-chromeno[2,3-b]quinolin-3-yl]oxy-1-(4-chlorophenyl)ethan-1-one] | 6.01 ± 0.3 µM
27 | COc1ccccc1C1c2ccc(OCC(=O)c3ccc(Cl)cc3)cc2Oc2nc3c(c(N)c21)CCCC3 (centres unmarked) [5e, 2-[11-Amino-12-(2-methoxyphenyl)-7,9,10,12-tetrahydro-8H-chromeno[2,3-b]quinolin-3-yl]oxy-1-(4-chlorophenyl)ethan-1-one] | 0.75 ± 0.04 µM
28 | Nc1c2c(nc3c1C(c1cccc(Br)c1)c1ccc(OCC(=O)c4ccccc4)cc1O3)CCCC2 (centres unmarked) [5f, 2-[11-Amino-12-(3-bromophenyl)-7,9,10,12-tetrahydro-8H-chromeno[2,3-b]quinolin-3-yl]oxy-1-phenylethan-1-one] | 1.14 ± 0.054 µM
29 | COc1cccc(C2c3ccc(OCC(=O)c4ccccc4)cc3Oc3nc4c(c(N)c32)CCCC4)c1 (centres unmarked) [5g, 2-[11-Amino-12-(3-methoxyphenyl)-7,9,10,12-tetrahydro-8H-chromeno[2,3-b]quinolin-3-yl]oxy-1-phenylethan-1-one] | 31 ± 1.47 µM
30 | Nc1c2c(nc3c1C(c1cccc([N+](=O)[O-])c1)c1ccc(OCC(=O)c4ccccc4)cc1O3)CCCC2 (centres unmarked) [5h, 2-[11-Amino-12-(3-nitrophenyl)-7,9,10,12-tetrahydro-8H-chromeno[2,3-b]quinolin-3-yl]oxy-1-phenylethan-1-one] | 10.2 ± 0.48 µM
31 | COc1ccccc1C1c2ccc(OCC(=O)c3ccccc3)cc2Oc2nc3c(c(N)c21)CCCC3 (centres unmarked) [5j, 2-[11-Amino-12-(2-methoxyphenyl)-7,9,10,12-tetrahydro-8H-chromeno[2,3-b]quinolin-3-yl]oxy-1-phenylethan-1-one] | 2.48 ± 0.12 µM

Biological target: Aβ1–42 (Homo sapiens, UniProt P05067)
Sequence (P05067 672-713): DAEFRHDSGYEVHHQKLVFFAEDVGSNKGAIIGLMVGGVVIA
Assay: Self-induced Aβ1–42 aggregation inhibition
Format: biochemical
Conditions: read-out: Aβ1–42 (% inhibition at 10 μM)

Row | Compound | inhibition at 10 µM
32 | COc1cc(/C=C/C(=O)CC(=O)/C=C/c2ccc(O)c(OC)c2)ccc1O [Curcumin, reference compound] | 44%
